Each block holds one compound with its values, some of them ahead of it. Calls of active or inactive are those of the source. No cut-off for these calls is given here.
What was measured:
MOLM-13 [1] = test: Antiproliferative activity against human MOLM-13 cells incubated for 48 hrs by CCK-8 assay; format: functional, cell-based; conditions: MOLM-13, 48 h
MV4-11 [2] = test: Antiproliferative activity against human MV4-11 cells incubated for 48 hrs by CCK-8 assay; format: functional, cell-based; conditions: MV4-11, 48 h
MOLM-13 [3] = test: Induction of apoptosis in human MOLM-13 cells after 48 hrs by Annexin-V/PI staining based flow cytometry; format: functional, cell-based; conditions: dose 1.25-10 nM
MV4-11 [4] = test: Induction of apoptosis in human MV4-11 cells after 48 hrs by Annexin-V/PI staining based flow cytometry; format: functional, cell-based; conditions: dose 1.25-10 nM
MOLM-13 [5] = test: Induction of apoptosis in human MOLM-13 cells assessed as downregulation of Mcl-1 level at 15 nM measured upto 12 hrs by Western blot analysis; format: functional, cell-based; conditions: time hrs <=12
MV4-11 [6] = test: Induction of apoptosis in human MV4-11 cells assessed as downregulation of Mcl-1 level at 15 nM measured upto 12 hrs by Western blot analysis; format: functional, cell-based; conditions: time hrs <=12
MOLM-13 [7] = test: Induction of apoptosis in human MOLM-13 cells assessed as downregulation of Bcl-2 level at 15 nM measured upto 12 hrs by Western blot analysis; format: functional, cell-based; conditions: time hrs <=12
MV4-11 [8] = test: Induction of apoptosis in human MV4-11 cells assessed as downregulation of Bcl-2 level at 15 nM measured upto 12 hrs by Western blot analysis; format: functional, cell-based; conditions: time hrs <=12
MOLM-13 [9] = test: Induction of apoptosis in human MOLM-13 cells assessed as upregulation of cleaved caspase-3 level at 15 nM by Western blot analysis; format: functional, cell-based; conditions: time 0-12 hrs, TDE = time-dependent effect
MV4-11 [10] = test: Induction of apoptosis in human MV4-11 cells assessed as upregulation of cleaved caspase-3 level at 15 nM by Western blot analysis; format: functional, cell-based; conditions: time 0-12 hrs, TDE = time-dependent effect
[11] = test system: Receptor-type tyrosine-protein kinase FLT3 (Homo sapiens), P36888 [UNDEFINED MUTATION]; test: Induction of FLT3-ITD degradation in human MOLM-13 cells after 24 hrs by Western blot analysis; format: cell-based
[12] = test system: Receptor-type tyrosine-protein kinase FLT3 (Homo sapiens), P36888 [UNDEFINED MUTATION]; test: Induction of FLT3-ITD degradation in human MV4-11 cells after 24 hrs by Western blot analysis; format: cell-based
[13] = molecular target: Mast/stem cell growth factor receptor Kit (Homo sapiens) (UniProt P10721); test: Induction of KIT degradation in human MOLM-13 cells at 0 to 25 nM after 24 hrs by Western blot analysis; format: cell-based; conditions: dose 0-25 nM
[14] = molecular target: Mast/stem cell growth factor receptor Kit (Homo sapiens) (UniProt P10721); test: Induction of KIT degradation in human MV4-11 cells at 0 to 25 nM after 24 hrs by Western blot analysis; format: cell-based; conditions: dose 0-25 nM
[15] = molecular target: Platelet-derived growth factor receptor beta (Homo sapiens) (UniProt P09619); test: Induction of PDGFR degradation in human MOLM-13 cells at 0 to 25 nM after 24 hrs by Western blot analysis; format: cell-based; conditions: dose 0-25 nM
[16] = molecular target: Platelet-derived growth factor receptor beta (Homo sapiens) (UniProt P09619); test: Induction of PDGFR degradation in human MV4-11 cells at 0 to 25 nM after 24 hrs by Western blot analysis; format: cell-based; conditions: dose 0-25 nM
[17] = molecular target: Receptor-type tyrosine-protein kinase FLT3 (Homo sapiens) (UniProt P36888); test: Inhibition of FLT3 in human MOLM-13 cells assessed as reduction in FLT3 phosphorylation at 15 nM by Western blot analysis; format: cell-based; conditions: time 0-12 hrs, TDE = time-dependent effect
[18] = molecular target: Receptor-type tyrosine-protein kinase FLT3 (Homo sapiens) (UniProt P36888); test: Inhibition of FLT3 in human MV4-11 cells assessed as reduction in FLT3 phosphorylation at 15 nM by Western blot analysis; format: cell-based; conditions: time 0-12 hrs, TDE = time-dependent effect
[19] = molecular target: Receptor-type tyrosine-protein kinase FLT3 (Homo sapiens) (UniProt P36888); test: Inhibition of FLT3 in human MOLM-13 cells assessed as reduction in STAT5 phosphorylation at 15 nM by Western blot analysis; format: cell-based; conditions: time 0-12 hrs, TDE = time-dependent effect
[20] = molecular target: Receptor-type tyrosine-protein kinase FLT3 (Homo sapiens) (UniProt P36888); test: Inhibition of FLT3 in human MV4-11 cells assessed as reduction in STAT5 phosphorylation at 15 nM by Western blot analysis; format: cell-based; conditions: time 0-12 hrs, TDE = time-dependent effect
[21] = molecular target: Receptor-type tyrosine-protein kinase FLT3 (Homo sapiens) (UniProt P36888); test: Inhibition of FLT3 in human MOLM-13 cells assessed as reduction in AKT phosphorylation at 15 nM by Western blot analysis; format: cell-based; conditions: time 0-12 hrs, TDE = time-dependent effect
[22] = molecular target: Receptor-type tyrosine-protein kinase FLT3 (Homo sapiens) (UniProt P36888); test: Inhibition of FLT3 in human MV4-11 cells assessed as reduction in AKT phosphorylation at 15 nM by Western blot analysis; format: cell-based; conditions: time 0-12 hrs, TDE = time-dependent effect
[23] = molecular target: Receptor-type tyrosine-protein kinase FLT3 (Homo sapiens) (UniProt P36888); test: Inhibition of FLT3 in human MOLM-13 cells assessed as reduction in ERK phosphorylation at 15 nM by Western blot analysis; format: cell-based; conditions: time 0-12 hrs, TDE = time-dependent effect
[24] = molecular target: Receptor-type tyrosine-protein kinase FLT3 (Homo sapiens) (UniProt P36888); test: Inhibition of FLT3 in human MV4-11 cells assessed as reduction in ERK phosphorylation at 15 nM by Western blot analysis; format: cell-based; conditions: time 0-12 hrs, TDE = time-dependent effect
[25] = molecular target: Mast/stem cell growth factor receptor Kit (Homo sapiens) (UniProt P10721); test: Inhibition of KIT in human MOLM-13 cells assessed as reduction in STAT3 phosphorylation at 5 to 25 nM after 24 hrs by Western blot analysis; format: cell-based; conditions: dose 5-25 nM
[26] = molecular target: Mast/stem cell growth factor receptor Kit (Homo sapiens) (UniProt P10721); test: Inhibition of KIT in human MV4-11 cells assessed as reduction in STAT3 phosphorylation at 5 to 25 nM after 24 hrs by Western blot analysis; format: cell-based; conditions: dose 5-25 nM
[27] = molecular target: Mast/stem cell growth factor receptor Kit (Homo sapiens) (UniProt P10721); test: Inhibition of KIT in human MOLM-13 cells assessed as reduction in PI3K phosphorylation at 5 to 25 nM after 24 hrs by Western blot analysis; format: cell-based; conditions: dose 5-25 nM
[28] = molecular target: Mast/stem cell growth factor receptor Kit (Homo sapiens) (UniProt P10721); test: Inhibition of KIT in human MV4-11 cells assessed as reduction in PI3K phosphorylation at 5 to 25 nM after 24 hrs by Western blot analysis; format: cell-based; conditions: dose 5-25 nM
[29] = test system: Receptor-type tyrosine-protein kinase FLT3 (Homo sapiens), P36888 [UNDEFINED MUTATION]; test: Induction of FLT3-ITD degradation in human MV4-11 cells at 20 nM pretreated with MG132 for 2 hrs followed compound addition for 6 hrs by Western blot analysis; format: cell-based
[30] = test system: Receptor-type tyrosine-protein kinase FLT3 (Homo sapiens), P36888 [UNDEFINED MUTATION]; test: Induction of FLT3-ITD degradation in human MV4-11 cells at 20 nM pretreated with pomalidomide for 2 hrs followed compound addition for 6 hrs by Western blot analysis; format: cell-based
[31] = test system: Receptor-type tyrosine-protein kinase FLT3 (Homo sapiens), P36888 [UNDEFINED MUTATION]; test: Induction of FLT3-ITD degradation in human MV4-11 cells at 20 nM pretreated with dov for 2 hrs followed compound addition for 6 hrs by Western blot analysis; format: cell-based
[32] = test system: Receptor-type tyrosine-protein kinase FLT3 (Homo sapiens), P36888 [UNDEFINED MUTATION]; test: Induction of FLT3-ITD degradation in human MV4-11 cells assessed as accumulation of ubiquitinated FLT3-ITD at 15 nM preincubated for 4 hrs followed by MG132 addition for 2 hrs by immunoprecipitation assay; format: cell-based; conditions: time 6.0 hrs
MOLM-13 [33] = test: Reduction in intracellular ROS level in human MOLM-13 cells measured after 12 hrs by DCFH-DA probe based flow cytometry; format: functional, cell-based; conditions: dose 25-200 nM
MV4-11 [34] = test: Reduction in intracellular ROS level in human MV4-11 cells measured after 12 hrs by DCFH-DA probe based flow cytometry; format: functional, cell-based; conditions: dose 25-200 nM
MV4-11 [35] = test: Antitumor activity against human MV4-11 cells xenografted in NOD/SCID mouse assessed as reduction in CD45-positive cells in bone marrow at 3 mg/kg/day, iv administered for 12 days by flow cytometry analysis (reference value: 32.23 %); format: functional; set-up: scale not given: the % may be the effect or the level left; conditions: time 12 day
[36] = Toxicity in NOD/SCID mouse xenografted with human MV4-11 cells assessed as effect on body weight at 3 mg/kg/day, iv administered for 12 hrs; format: organism-based; conditions: in vivo

Sequence of Receptor-type tyrosine-protein kinase FLT3 (Homo sapiens), P36888 [UNDEFINED MUTATION] (P36888 whole entry, looked up, change not shown): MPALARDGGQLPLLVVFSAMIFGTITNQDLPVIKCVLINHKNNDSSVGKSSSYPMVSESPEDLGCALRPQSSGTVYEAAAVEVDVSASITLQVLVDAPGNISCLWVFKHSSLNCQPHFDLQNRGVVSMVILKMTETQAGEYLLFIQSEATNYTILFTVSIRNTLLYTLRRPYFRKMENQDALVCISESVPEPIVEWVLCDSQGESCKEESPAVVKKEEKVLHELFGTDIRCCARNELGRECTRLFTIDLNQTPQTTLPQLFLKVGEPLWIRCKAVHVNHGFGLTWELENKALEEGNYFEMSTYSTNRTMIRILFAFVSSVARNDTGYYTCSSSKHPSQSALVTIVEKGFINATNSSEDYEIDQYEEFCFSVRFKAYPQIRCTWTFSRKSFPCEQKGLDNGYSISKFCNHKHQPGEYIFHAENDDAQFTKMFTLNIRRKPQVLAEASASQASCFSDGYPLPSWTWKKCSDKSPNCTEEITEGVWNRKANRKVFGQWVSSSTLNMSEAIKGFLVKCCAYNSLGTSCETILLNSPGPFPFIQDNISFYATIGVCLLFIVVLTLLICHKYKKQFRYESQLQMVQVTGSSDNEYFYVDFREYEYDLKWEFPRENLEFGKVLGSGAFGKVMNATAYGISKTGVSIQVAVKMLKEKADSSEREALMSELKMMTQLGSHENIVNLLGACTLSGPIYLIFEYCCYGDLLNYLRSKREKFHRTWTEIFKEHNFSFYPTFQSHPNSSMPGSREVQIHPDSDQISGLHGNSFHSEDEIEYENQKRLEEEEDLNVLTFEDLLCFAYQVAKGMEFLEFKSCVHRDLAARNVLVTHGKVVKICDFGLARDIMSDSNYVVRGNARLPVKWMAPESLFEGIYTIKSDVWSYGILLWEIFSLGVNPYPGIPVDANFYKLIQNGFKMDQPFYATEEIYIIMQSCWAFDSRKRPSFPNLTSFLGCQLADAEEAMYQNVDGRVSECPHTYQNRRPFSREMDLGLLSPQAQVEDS
Sequence of Receptor-type tyrosine-protein kinase FLT3 (Homo sapiens) (P36888 whole entry): as the sequence (P36888 whole entry, looked up, change not shown) above
Sequence of Mast/stem cell growth factor receptor Kit (Homo sapiens) (P10721 whole entry): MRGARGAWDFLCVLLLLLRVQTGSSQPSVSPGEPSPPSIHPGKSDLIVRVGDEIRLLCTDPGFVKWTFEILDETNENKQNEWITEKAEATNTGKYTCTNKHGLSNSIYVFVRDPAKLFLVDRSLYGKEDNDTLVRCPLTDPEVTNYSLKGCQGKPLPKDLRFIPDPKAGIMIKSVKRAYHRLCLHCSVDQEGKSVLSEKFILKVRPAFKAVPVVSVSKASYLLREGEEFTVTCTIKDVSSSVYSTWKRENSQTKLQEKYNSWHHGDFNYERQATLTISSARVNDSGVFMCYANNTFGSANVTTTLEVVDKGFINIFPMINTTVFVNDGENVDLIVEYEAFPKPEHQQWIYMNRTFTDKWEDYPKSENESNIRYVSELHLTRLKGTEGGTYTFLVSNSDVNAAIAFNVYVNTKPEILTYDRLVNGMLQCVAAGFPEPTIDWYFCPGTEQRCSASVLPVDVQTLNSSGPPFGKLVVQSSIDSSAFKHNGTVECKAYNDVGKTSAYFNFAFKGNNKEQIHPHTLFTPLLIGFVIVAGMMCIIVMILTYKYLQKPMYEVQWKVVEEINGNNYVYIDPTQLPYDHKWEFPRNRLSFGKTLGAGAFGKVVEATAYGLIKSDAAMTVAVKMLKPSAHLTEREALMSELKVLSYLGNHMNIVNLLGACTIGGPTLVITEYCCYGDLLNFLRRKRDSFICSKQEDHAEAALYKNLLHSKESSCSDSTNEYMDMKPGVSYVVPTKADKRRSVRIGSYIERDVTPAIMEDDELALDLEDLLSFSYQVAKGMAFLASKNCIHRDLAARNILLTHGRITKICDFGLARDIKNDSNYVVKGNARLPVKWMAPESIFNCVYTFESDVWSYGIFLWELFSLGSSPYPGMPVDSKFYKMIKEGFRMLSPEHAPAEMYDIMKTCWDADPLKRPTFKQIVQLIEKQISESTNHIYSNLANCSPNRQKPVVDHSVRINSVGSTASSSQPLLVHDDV
Sequence of Platelet-derived growth factor receptor beta (Homo sapiens) (P09619 whole entry): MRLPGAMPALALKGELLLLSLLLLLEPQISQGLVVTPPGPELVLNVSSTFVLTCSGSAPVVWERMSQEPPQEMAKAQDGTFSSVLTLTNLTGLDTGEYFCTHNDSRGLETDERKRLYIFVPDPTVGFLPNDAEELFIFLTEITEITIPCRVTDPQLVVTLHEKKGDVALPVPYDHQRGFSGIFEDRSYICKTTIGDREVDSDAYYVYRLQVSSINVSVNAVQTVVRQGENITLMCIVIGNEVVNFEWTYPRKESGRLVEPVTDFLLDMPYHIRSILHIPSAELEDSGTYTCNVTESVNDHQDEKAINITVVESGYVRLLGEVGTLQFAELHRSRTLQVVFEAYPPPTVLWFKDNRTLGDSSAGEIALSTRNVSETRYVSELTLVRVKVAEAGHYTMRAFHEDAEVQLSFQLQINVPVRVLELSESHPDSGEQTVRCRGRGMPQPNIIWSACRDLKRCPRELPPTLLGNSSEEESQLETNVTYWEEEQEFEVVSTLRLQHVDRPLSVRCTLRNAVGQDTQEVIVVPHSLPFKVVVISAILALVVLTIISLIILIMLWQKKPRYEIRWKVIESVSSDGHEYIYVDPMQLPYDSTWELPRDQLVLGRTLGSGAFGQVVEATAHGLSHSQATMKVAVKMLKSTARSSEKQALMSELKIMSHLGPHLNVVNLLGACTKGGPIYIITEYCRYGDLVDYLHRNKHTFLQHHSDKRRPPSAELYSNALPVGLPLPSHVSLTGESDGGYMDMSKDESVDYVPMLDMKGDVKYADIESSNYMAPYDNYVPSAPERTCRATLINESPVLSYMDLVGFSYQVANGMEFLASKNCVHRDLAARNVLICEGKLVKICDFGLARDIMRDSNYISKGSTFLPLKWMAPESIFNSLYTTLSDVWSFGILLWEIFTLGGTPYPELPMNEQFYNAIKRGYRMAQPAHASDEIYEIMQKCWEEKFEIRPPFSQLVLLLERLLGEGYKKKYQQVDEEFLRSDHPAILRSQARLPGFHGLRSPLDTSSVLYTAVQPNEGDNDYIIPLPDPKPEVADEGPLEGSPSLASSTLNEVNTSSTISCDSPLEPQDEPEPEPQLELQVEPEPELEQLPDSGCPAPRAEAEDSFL

Structure (SMILES): Nc1c(-c2nc3cc(N4CCN(CCCCCC(=O)Nc5cccc6c5CN(C5CCC(=O)NC5=O)C6=O)CC4)ccc3[nH]2)c(=O)[nH]c2cccc(F)c12 (configuration not stated)
IC50 (MOLM-13 [1]): > 1000 nM
IC50 (MV4-11 [2]): > 1000 nM

Structure (SMILES): Nc1c(-c2nc3cc(N4CCN(CCCCCCC(=O)Nc5cccc6c5C(=O)N(C5CCC(=O)NC5=O)C6=O)CC4)ccc3[nH]2)c(=O)[nH]c2cccc(F)c12 (configuration not stated)
IC50 (MOLM-13 [1]): > 1000 nM
IC50 (MV4-11 [2]): 418 nM

Structure (SMILES): Nc1c(-c2nc3cc(N4CCN(CCCCC(=O)Nc5cccc6c5CN(C5CCC(=O)NC5=O)C6=O)CC4)ccc3[nH]2)c(=O)[nH]c2cccc(F)c12 (configuration not stated)
IC50 (MOLM-13 [1]): 751 nM
IC50 (MV4-11 [2]): > 1000 nM

Structure (SMILES): Nc1c(-c2nc3cc(N4CCN(CCC(=O)Nc5cccc6c5C(=O)N(C5CCC(=O)NC5=O)C6=O)CC4)ccc3[nH]2)c(=O)[nH]c2cccc(F)c12 (configuration not stated)
IC50 (MOLM-13 [1]): > 1000 nM
IC50 (MV4-11 [2]): > 1000 nM

Second part, led by results:

IC50 (MOLM-13 [1]): 10.1 nM
IC50 (MV4-11 [2]): 18.7 nM
Activity [11]: Dose-Dependent Effect
Activity [12]: Dose-Dependent Effect
Activity [13]: Active
Activity [14]: Active
Activity [15]: Active
Activity [16]: Active
inhibition [17]: Tde
inhibition [18]: Tde
inhibition [19]: Tde
inhibition [20]: Tde
inhibition [21]: Tde
inhibition [22]: Tde
inhibition [23]: Tde
inhibition [24]: Tde
inhibition [25]: Active
inhibition [26]: Active
inhibition [27]: Active
inhibition [28]: Active
Activity [29]: inactive
Activity [30]: inactive
Activity [31]: inactive
Activity [32]: Active
Structure (SMILES): Nc1c(-c2nc3cc(N4CCN(C(=O)CCCCNc5cccc6c5C(=O)N(C5CCC(=O)NC5=O)C6=O)CC4)ccc3[nH]2)c(=O)[nH]c2cccc(F)c12 (configuration not stated)
Activity (MOLM-13 [3]): Dose-Dependent Effect
Activity (MV4-11 [4]): Dose-Dependent Effect
Activity (MOLM-13 [5]): Active
Activity (MV4-11 [6]): Active
Activity (MOLM-13 [7]): Active
Activity (MV4-11 [8]): Active
Activity (MOLM-13 [9]): Tde
Activity (MV4-11 [10]): Tde
Activity (MOLM-13 [33]): Dose-Dependent Effect
Activity (MV4-11 [34]): Dose-Dependent Effect
Activity (MV4-11 [35]): 5.25%
Activity [36]: Non-Toxic

IC50 (MOLM-13 [1]): 141 nM
IC50 (MV4-11 [2]): 466 nM
Activity [11]: Dose-Dependent Effect
Activity [12]: Dose-Dependent Effect
Structure (SMILES): CN1C(=O)CCC(N2C(=O)c3cccc(NCCCCCC(=O)N4CCN(c5ccc6[nH]c(-c7c(N)c8c(F)cccc8[nH]c7=O)nc6c5)CC4)c3C2=O)C1=O (configuration not stated)

IC50 (MOLM-13 [1]): 419 nM
IC50 (MV4-11 [2]): 739 nM
Structure (SMILES): Nc1c(-c2nc3cc(N4CCN(CCCC(=O)Nc5cccc6c5C(=O)N(C5CCC(=O)NC5=O)C6=O)CC4)ccc3[nH]2)c(=O)[nH]c2cccc(F)c12 (configuration not stated)

IC50 (MOLM-13 [1]): > 1000 nM
IC50 (MV4-11 [2]): 726 nM
Structure (SMILES): Nc1c(-c2nc3cc(N4CCN(CCCCC(=O)Nc5cccc6c5C(=O)N(C5CCC(=O)NC5=O)C6=O)CC4)ccc3[nH]2)c(=O)[nH]c2cccc(F)c12 (configuration not stated)
